In patent publication US20030110524A1, “TRANSGENIC ORGANISMS AND THEIR USES” (priority 1997, published 2003):

Key:
[1] = test system: lung fibroblast cells derived from control rats; assay: Survival of lung fibroblast cells from control rats with drugs; assay type: cell-based, rat; details: control rat cells, drugs added at day 2, geneticin 400 μg/ml, 5FC 100 μg/ml
Method: (§1) Fibroblast cultures derived from lung of adult CD2/neo^r, TG/TK/neo^r and control animals were produced and expanded by routine methods (Freshney (1987), Alan R. Liss, New York). Twenty-four hours after plating, geneticin (400 μg/ml) was added to cultures originating from both types of transgenic rats and from control rats, and replaced every three days with fresh medium. When required, cells were subcultured (1:3) to prevent them becoming confluent, again by basic culture methods (Freshney 1987). Cell counts were made manually in 20 fields chosen randomly and the values at each time point, after allowing for changes due to subculturing, were aggregated. […] In the absence of added geneticin, no change in cell survival from either of the transgenic animals was observed.
(§2) The effects of 5-fluorocytosine (5FC) were also determined. 5-fluorocytosine at a concentration of 100 μg/ml had no effect on fibroblast cells derived from control animals or from the TG/TK/neo^r transgenic. In the cells derived from the CD2/neo^r transgenic animal, however, 94% of the originally-plated cells died, or were non-functional (as determined by their failure to exclude trypan blue) after 10 days culture in the presence of 5FC (Table 2).
(§3) Drugs were added at day 2 in culture. Values are related to the number of cells found in control cultures without drug additions at various times after plating, and allowing for dilutions resulting from passaging. Figures are the means of three separate determinations, the standard errors all being less than 15% of the mean.

[2] = test system: lung fibroblast cells derived from TG/TK/neo^r transgenic rats; assay: Survival of lung fibroblast cells from TG/TK/neo^r transgenic rats with drugs; assay type: cell-based, rat; details: TG/TK/neo^r rat cells, drugs added at day 2, geneticin 400 μg/ml, 5FC 100 μg/ml
Method: as §1, §2, §3

[3] = test system: lung fibroblast cells derived from CD2/neo^r transgenic rats; assay: Survival of lung fibroblast cells from CD2/neo^r transgenic rats with drugs; assay type: cell-based, rat; details: CD2/neo^r rat cells, drugs added at day 2, geneticin 400 μg/ml, 5FC 100 μg/ml
Method: as §1, §2, §3

[4] = test system: thyroid cells derived from control rats; assay: Survival of thyroid cells from control rats with drugs; assay type: cell-based, rat; details: control rat cells, drugs added at day 2, geneticin 400 μg/ml, ACG 10 μg/ml
Method: (§4) Thyroid cultures derived from the thyroid gland of adult CD2/neo^r, TG/TK/neo^r and control animals were produced by routine methods (Freshney, 1987). Twenty-four hours after plating, geneticin (400 μg/ml) was added to cultures originating from both types of transgenic and the control rats, and replaced every three days with fresh medium. When required, cells were subcultured (1:2) to prevent their becoming confluent. Cell counts were made manually in 20 fields chosen randomly, and the values at each time point, after allowing for changes due to subculturing, were aggregated (Table 3). […] Ten days later, cell counts were again made of 20 fields chosen at random. […] The results were as expected in view of the specific and non-specific expression of the positive and negative selection markers, in the TG/TK/neo^r and CD2/neo^r transgenics, respectively.
as §3, with “allow” for “allowing”

[5] = test system: thyroid cells derived from TG/TK/neo^r transgenic rats; assay: Survival of thyroid cells from TG/TK/neo^r transgenic rats with drugs; assay type: cell-based, rat; details: TG/TK/neo^r rat cells, drugs added at day 2, geneticin 400 μg/ml, ACG 10 μg/ml
Method: as §4
as §3, with “allow” for “allowing”

[6] = test system: thyroid cells derived from CD2/neo^r transgenic rats; assay: Survival of thyroid cells from CD2/neo^r transgenic rats with drugs; assay type: cell-based; details: CD2/neo^r rat cells, drugs added at day 2, geneticin 400 μg/ml, ACG 10 μg/ml
Method: as §4
as §3, with “allow” for “allowing”

[7] = test system: spinal cord cells derived from the CD2-neo^r transgenic rat; assay: Survival and development of spinal cord cells from the CD2-neo^r transgenic rat under geneticin; assay type: cell-based; details: geneticin 1 mg/ml; 60 days in vitro
Method: Cultures of spinal cord cells derived from the CD2-neo^r transgenic rat were grown in small flasks, using previously established methods (Foster et al., (1990) Eur. J. Neurosci. 3, 32-39). At the beginning of the experimental period, in the region of 100 yeast spores, and unknown amounts of other common laboratory microbiological contaminants, were introduced into the flask. At the same time geneticin (1 mg/ml) was added. Thereafter, all manipulations of the medium and additions to the flask were conducted outside the sterile environment of the laminar flow cabinet.

**Q.** With `CN[C@@H]1[C@@H](O)[C@@H](O[C@@H]2[C@@H](O)[C@H](O[C@H]3O[C@H]([C@@H](C)O)[C@@H](O)[C@H](O)[C@H]3N)[C@@H](N)C[C@H]2N)OC[C@]1(C)O` [geneticin] as the compound, how does the “Survival of lung fibroblast cells (related to number of cells in control cultures without drug)” value ([1]; day 1 in culture) read?
**A.** The value was 99.

**Q.** And the “Survival of lung fibroblast cells (related to number of cells in control cultures without drug)” value ([1]; day 3 in culture)?
**A.** The value was 101.

**Q.** And the “Survival of lung fibroblast cells (related to number of cells in control cultures without drug)” value ([1]; day 5 in culture)?
**A.** Its value is 85.

**Q.** And the “Survival of lung fibroblast cells (related to number of cells in control cultures without drug)” value ([1]; day 7 in culture)?
**A.** The value was 23.

**Q.** And the “Survival of lung fibroblast cells (related to number of cells in control cultures without drug)” value ([1]; day 9 in culture)?
**A.** The value was 5.

**Q.** And the “Survival of lung fibroblast cells (related to number of cells in control cultures without drug)” value ([1]; day 11 in culture)?
**A.** The value was 2.

**Q.** And the “Survival of lung fibroblast cells (related to number of cells in control cultures without drug)” value ([2]; day 1 in culture)?
**A.** Its value is 97.

**Q.** And the “Survival of lung fibroblast cells (related to number of cells in control cultures without drug)” value ([2]; day 3 in culture)?
**A.** The value was 105.

**Q.** What about the “Survival of lung fibroblast cells (related to number of cells in control cultures without drug)” value ([2]; day 5 in culture) of the same compound?
**A.** Its value is 108.

**Q.** What about the “Survival of lung fibroblast cells (related to number of cells in control cultures without drug)” value ([2]; day 7 in culture) of the same compound?
**A.** Its value is 101.

**Q.** And the “Survival of lung fibroblast cells (related to number of cells in control cultures without drug)” value ([2]; day 9 in culture)?
**A.** The value was 105.

**Q.** And the “Survival of lung fibroblast cells (related to number of cells in control cultures without drug)” value ([2]; day 11 in culture)?
**A.** Its value is 111.

**Q.** And the “Survival of lung fibroblast cells (related to number of cells in control cultures without drug)” value ([3]; day 1 in culture)?
**A.** The value was 91.

**Q.** And the “Survival of lung fibroblast cells (related to number of cells in control cultures without drug)” value ([3]; day 3 in culture)?
**A.** Its value is 94.

**Q.** What about the “Survival of lung fibroblast cells (related to number of cells in control cultures without drug)” value ([3]; day 5 in culture) of the same compound?
**A.** Its value is 91.

**Q.** And the “Survival of lung fibroblast cells (related to number of cells in control cultures without drug)” value ([3]; day 7 in culture)?
**A.** Its value is 93.

**Q.** And the “Survival of lung fibroblast cells (related to number of cells in control cultures without drug)” value ([3]; day 9 in culture)?
**A.** Its value is 107.

**Q.** And the “Survival of lung fibroblast cells (related to number of cells in control cultures without drug)” value ([3]; day 11 in culture)?
**A.** Its value is 105.

**Q.** And the “Survival of thyroid cells (related to number of cells in control cultures without drug)” value ([4]; day 1 in culture)?
**A.** Its value is 95.

**Q.** What about the “Survival of thyroid cells (related to number of cells in control cultures without drug)” value ([4]; day 3 in culture) of the same compound?
**A.** Its value is 91.

**Q.** And the “Survival of thyroid cells (related to number of cells in control cultures without drug)” value ([4]; day 5 in culture)?
**A.** The value was 85.

**Q.** What about the “Survival of thyroid cells (related to number of cells in control cultures without drug)” value ([4]; day 7 in culture) of the same compound?
**A.** Its value is 56.

**Q.** What about the “Survival of thyroid cells (related to number of cells in control cultures without drug)” value ([4]; day 9 in culture) of the same compound?
**A.** Its value is 9.

**Q.** What about the “Survival of thyroid cells (related to number of cells in control cultures without drug)” value ([4]; day 11 in culture) of the same compound?
**A.** Its value is 4.

**Q.** And the “Survival of thyroid cells (related to number of cells in control cultures without drug)” value ([5]; day 1 in culture)?
**A.** The value was 104.

**Q.** And the “Survival of thyroid cells (related to number of cells in control cultures without drug)” value ([5]; day 3 in culture)?
**A.** The value was 105.

**Q.** What about the “Survival of thyroid cells (related to number of cells in control cultures without drug)” value ([5]; day 5 in culture) of the same compound?
**A.** Its value is 98.

**Q.** What about the “Survival of thyroid cells (related to number of cells in control cultures without drug)” value ([5]; day 7 in culture) of the same compound?
**A.** The value was 88.

**Q.** And the “Survival of thyroid cells (related to number of cells in control cultures without drug)” value ([5]; day 9 in culture)?
**A.** The value was 93.

**Q.** And the “Survival of thyroid cells (related to number of cells in control cultures without drug)” value ([5]; day 11 in culture)?
**A.** Its value is 98.

**Q.** And the “Survival of thyroid cells (related to number of cells in control cultures without drug)” value ([6]; day 1 in culture)?
**A.** The value was 91.

**Q.** What about the “Survival of thyroid cells (related to number of cells in control cultures without drug)” value ([6]; day 3 in culture) of the same compound?
**A.** The value was 94.

**Q.** What about the “Survival of thyroid cells (related to number of cells in control cultures without drug)” value ([6]; day 5 in culture) of the same compound?
**A.** The value was 91.

**Q.** And the “Survival of thyroid cells (related to number of cells in control cultures without drug)” value ([6]; day 7 in culture)?
**A.** The value was 93.

**Q.** And the “Survival of thyroid cells (related to number of cells in control cultures without drug)” value ([6]; day 9 in culture)?
**A.** The value was 107.

**Q.** And the “Survival of thyroid cells (related to number of cells in control cultures without drug)” value ([6]; day 11 in culture)?
**A.** Its value is 105.

**Q.** And the “Survival and development of the neural cells compared to uninfected control cells grown without geneticin” value [7]?
**A.** Its value is “appeared unimpaired”.
